Reference: patent US9994691B2, “Antimicrobial cleansing composition” (Conopco, Inc., d/b/a UNILEVER, priority 2014, dated 2018)

Source text: Disclosed antimicrobial cleansing composition includes 0.1 to 100 ppm silver (I) compound. […] More particularly, silver ion solubility [Ag+], a value given in mol/L may be calculated using the formula: [Ag+]=(Ksp·x)^(1/(x+1))

- Silver Ion Solubility [Ag+]: 13 µM
Structure (SMILES): [Cl][Ag] [Silver chloride]
